# In patent US10945962B2, “Controlled-release peptide compositions and uses thereof” (BOARD OF REGENTS OF THE UNIVERSITY OF NEBRASKA, priority 2011, dated 2021):
# Like-named read-outs stand apart in the source and are kept apart here. Square brackets hold non-standard residues; d marks the D form. Ends that are not written are not given here. NMeL = CN[C@@H](CC(C)C)C(=O)O
# Key:
# [1] = system: IL-6, TNF-α, INF-γ and KC; test: Measurement of cytokines in tissue homogenates by ELISA; type: in vivo, mice
# Method: Measurement of cytokines. IL-6, TNF-α, INF-γ and KC inflammatory cytokines were measured in tissue homogenates as previously described using ELISA for IL-6, TNF-α, INF-γ (Morgan E L, et al., Vaccine; 28:8275-8279), or according to manufacturer's protocols (BD and R&D Systems) for KC. Samples were run in triplicate.
# Proinflammatory cytokines are enhanced by EP67 treatment. The decrease in lesion size observed in EP67-treated animals indicated an enhanced immune activation in these animals. In order to determine the nature of the immune response activated by EP67 treatment, skin lesions were harvested 48 h post-infection and EP67 or sEP67 treatment, and subjected to ELISA to measure proinflammatory cytokines in tissue homogenates.
# [2] = system: neutrophils; test: Neutrophil chemotaxis and myeloperoxidase assay, histopathology of injection site; type: in vivo, CD1 mice
# Method: Neutrophil chemotaxis and myeloperoxidase assay. Neutrophil recruitment at the site of injection by EP67 or sEP67 was examined using an in vivo chemotaxis assay as described previously (van Sorge N M, et al., PLoS One 2008; 3:e2964). Briefly, 250 μg EP67 or sEP67 were injected subcutaneously into the right flank of CD1 mice. The injection was repeated after 24 h. Mice were euthanized 4 h after the second injection and the site of injection excised for histopathologic analysis or determination of myeloperoxidase (MPO) activity as described previously (van Sorge N M, et al., supra). The assay was carried out two times and the samples analyzed in duplicate.
# Neutrophil influx is essential for the protective action of EP67. […] Neutrophil recruitment to the site of EP67 injection was further analyzed using an in vivo neutrophil recruitment assay as described previously (van Sorge N M, et al., supra; and Banerjee A, et al., Cell Microbiol; 12:1576-1588). Neutrophil migration was assessed in skin homogenates following injection of EP67 or sEP67 by determining the level of neutrophil enzyme myeloperoxidase (MPO), which serves as an effective indication of neutrophil infiltration (Banerjee A, et al., supra; and Bradley P P, et al., J Invest Dermatol 1982; 78:206-209). This method compares well with other in vivo assays of neutrophil chemotaxis (van Sorge N M, et al., supra).
# [3] = system: E. coli strain DHSα; test: Direct killing of bacteria, OD600 growth curves; type: cell-based
# Method: E. coli strain DHSα was grown overnight in Lennox Broth (LB). This culture was diluted to an optical density at […] (OD600) of 0.06. The diluted E. coli was dispensed in 1.5 ml aliquots into separate tubes and 1.5 ml of EP67 ([…] ID NO: 4)), EP54 ([…] NO: 3)), scrambled-EP67 (s-EP67) or scrambled-EP54 in LB was added to obtain a final concentration of 500 μg/ml with the E. coli at an OD600 of 0.03. A culture in LB was also prepared. The cultures were incubated at 37° C. with shaking and the OD600 readings recorded hourly. In order to determine whether the growth media altered the effectiveness of EP67, LB was replaced with an alternative growth media, Tryptic Soy Broth (TSB). To test the efficacy of EP67 on bacteria growing in log phase, overnight cultures of DHSα were grown in either LB or TSB. […] DH5α control cultures (absence of additives) were also prepared. The tubes were further shaken at 37° C. and OD600 readings were taken hourly.
# [4] = system: GBS; test: Group B Streptococcus (GBS) meningitis model; type: in vivo; conditions: CD1 mice, 250 μg i.p. at day −1, 0, 1 and 2, 96 hours post-injection
# Method: 8-week-old female CD1 mice were treated with 250 μg of EP67 or s-EP67 at day −1, 0, 1 and 2 via i.p. injection. GBS was injected i.p. at 1×10^9 cfu/mouse. Brains and blood were harvested from each mouse 96 hours post-injection. The tissue was homogenized, diluted and plated to determine the cfu/g bacteria.
# [5] = system: S. aureus (USA300 LAC strain) biofilm; test: Catheter-associated biofilm bacterial burden; type: in vivo; conditions: C57BL/6 mice, Day 3, relative to sEP67 and PBS vehicle
# Method: A S. aureus (USA300 LAC strain) biofilm was established on a hollow catheter (1 cm in length) inserted subcutaneously into C57BL/6 mice by introducing 1000 CFUs of S. aureus into the catheter lumen. At the time of infection, one dose of EP67 (200 μg/ml dissolved in PBS) was introduced. At both 24 and 48 h following infection, a series of four injections of EP67 were made; two into each open end of the catheter (20 μl each) and two along the top and bottom at points perpendicular to the middle of the catheter (50 μl each). Samples of the biofilm and surrounding tissue were obtained at Day 3 and assessed for the presence of viable bacteria by standard culture methods.
# [6] = system: S. aureus (Newman strain); test: S. aureus in vitro EP67 killing curves; type: cell-based; conditions: dilution series, LB
# Method: 150 μl of LB growth medium plus 50 μl of EP67 or s-EP67 were added to individual culture wells resulting in a dilution series of 6 wells per EP67 or s-EP67. A “no EP67” well (control) was included at the end of each series. S. aureus (Newman strain) was allowed to grow to an OD600 of 0.4 and each well of the dilution series was inoculated with 5 μl of the culture. Two wells with no bacterial inoculums were included to serve as controls. Plates were incubated at 37° C. with agitation and the OD600 of each well was measured hourly using a plate reader.
# [7] = system: influenza A/A/PR/8; type: in vivo; conditions: mice
# [8] = system: CA-MRSA strain USA300; test: Mouse model of MRSA dermonecrotic infection (lesion size, bacterial load); type: in vivo, Staphylococcus aureus
# [9] = system: exMAcs and neutrophils; conditions: aged lung
# Text: Since the aged mouse is considered a strong model for age-related changes in human immunity, the response of aged mice to EP67 insufflation was examined.
# [10] = system: bronchoalveolar lavage (BAL) cells; test: Insufflation of EP67 to the lungs, FACS analysis of BAL cells; type: in vivo, mice
# Method: In short, EP67 (3 mg/kg) was delivered directly to the lungs of mice through insufflation (IN). Animals were sacrificed one day later. Lungs were lavaged with PBS to isolate the bronchoalveolar lavage (BAL) cells for staining and FACS analysis.
# [11] = system: BAL cells; conditions: infected with influenza A/PR/8 and simultaneously treated, one day later
# Method: To test the robustness of the EP67 response, mice were treated at the time of influenza infection. Animals were sacrificed one day later for analysis of BAL cells as above.
# [12] = system: anti-influenza antibodies; test: ELISA for anti-influenza antibodies on serum; type: in vivo, mice; conditions: influenza-infected, EP67-treated groups
# [13] = 48 h post-infection, compared to sEP67
# [14] = EP67 3 mg/kg insufflation, one day later
substance,measurement,setting,value
"Tyr-Ser-Phe-Lys-Asp-Met-Pro-MeL-(D-Ala)-Arg (YSFKDMP[NMeL][dA]R; listed as Homo sapiens) [EP67, C-terminal analog of C5a]",IL-6 level in skin lesion homogenate,[1]; [13],Significantly higher levels
same,murine KC level in skin lesion homogenate,[1]; [13],Significantly higher levels
same,INF-γ production,[1]; during MRSA infection,increase
same,TNF-α production,[1]; during MRSA infection,increase
same,histopathologic analysis of skin tissue,"[2]; 250 μg s.c., no bacteria","massive influx of inflammatory cells, including neutrophils"
same,"myeloperoxidase (MPO) level, accumulating neutrophils","[2]; skin homogenates, 250 μg s.c. twice, compared to sEP67",significantly higher
same,effect on bacterial growth (OD600),"[3]; 500 μg/ml, start OD600 0.03, LB or TSB",induces direct bacteriostatic/bacteriocidal effects
same,effect on log phase growth (OD600),"[3]; added at OD600 0.2, 500 μg/m, LB or TSB",significantly reduce and/or stop log phase growth
same,protection against GBS infection (cfu/g in brain and blood),[4],protects against GBS infections in the central nervous system
same,bacterial burdens within the biofilm and surrounding tissue,[5],significant decrease in bacterial burdens within the biofilm and surrounding tissue
same,effect on bacterial growth (OD600),[6],dose dependent inhibitory effect
same,influenza-induced weight loss,[7]; treated one day after infection,displayed significant protection from influenza-induced weight loss
same,influenza-induced weight loss,[7]; treated the day before infection or the day of infection,lost significantly less weight than the non-treated animals
same,cutaneous lesion size,"[8]; CD1 mice, 250 μg s.c., 48 h post-bacterial inoculation, compared to sEP67",significantly reduced
same,bacterial load (CFU) within lesions,"[8]; CD1 mice, 5 days post-inoculation, compared to sEP67 or PBS",significant reduction in bacterial load
same,lesion size,"[8]; CD88−/− mice, EP67 versus sEP67",no difference in lesion size
same,lesion size,"[8]; CD-1 mice given isotype IgG control antibody, compared to sEP67",significant reduction in lesion size
same,lesion size,"[8]; neutropenic CD-1 mice (RB6-8C5 monoclonal antibody), EP67 versus sEP67",no quantifiable difference in lesion size
same,lesion size,"[8]; wild-type CD88+/+ C57Bl/6 mice, compared to sEP67",significantly smaller lesions
same,exMAcs and neutrophils in the alveolar space,[9],induces a large population of exMAcs and neutrophils into the alveolar space
same,CD11b+CD11c− cells (GR-1+ neutrophils) in the alveolar space,[10]; [14],a large population of CD11b^+CD11c^− cells appeared in the alveolar space
same,exudate macrophages (exMac) in BAL cells,[10]; [14],appearance of cells bearing the CD11b^+CD11c^+ phenotype of exudate macrophages (exMac)
same,dose dependence of EP67-induced changes in BAL populations,"[10]; mouse, in vivo",displayed a strict dose-response
same,time course of the EP67 response in BAL cells,[10]; seven days post EP67 administration,the neutrophils were largely lost
same,BAL exMAcs and neutrophils,[11],showed a similar increase in BAL exMAcs and neutrophils to the uninfected animals treated with EP67
same,anti-influenza Abs in serum,[12],a high concentration of anti-influenza Abs was found in each group
